# Results reported in US20230364032A1, “USE OF 2-HOBA TO TREAT ATHEROSCLEROSIS” (Vanderbilt University, priority 2020, published 2023).
# Assay: 2-HOBA and 4-HOBA levels in plasma and tissues of Ldlr−/− mice (LC/MS)
# Type: in vivo
# Details: for concentration at 16 weeks: Ldlr−/− on C57BL/6 background, mouse, plasma, oral, 1 g/L in drinking water, male Ldlr−/− mice after 16 weeks of treatment with 1 g/L of water; for levels in the aorta and heart / plasma levels of 2-HOBA versus 4-HOBA: male Ldlr−/− mice; for levels in the aorta and heart: 30 min after oral gavage; for plasma levels of 2-HOBA versus 4-HOBA: 30 min after oral gavage of 5 mg
# Procedure: FIG. 11A-11C show the concentration of 2-HOBA or 4-HOBA was measured in plasma and tissues from Ldlr^−/− mice. A. Eight week old male Ldlr^−/− mice were fed WD for 16 weeks and were continuously treated with water containing either 2-HOBA (n=9) or 4-HOBA (n=6). Plasma was collected 30 min after oral gavage of mice with either 2-HOBA or 4-HOBA (5 mg each mouse). (Mean±SEM shown for each, p=0.388 Mann-Whitney Test.) B-C. Levels of HOBA were measured in the aorta and heart of male Ldlr^−/− mice consuming a chow diet 30 min after oral gavage of 2-HOBA or 4-HOBA (5 mg each mouse). (Mean±SEM shown for each, N.S. Student t test). The levels of 2-HOBA or 4-HOBA were measured in the plasma and tissues using LC/MS as described in the Methods.
# Ldlr^−/− and WT on C57BL/6 background mice were obtained from the Jackson Laboratory. Animal protocols were performed according to the regulations of Vanderbilt University's Institutional Animal Care and Usage Committee. Mice were maintained on chow or a Western-type diet containing 21% milk fat and 0.15% cholesterol (Teklad). Eight week old, female Ldlr^−/− mice on a chow diet were pretreated with vehicle alone (Water) or containing either 1 g/L of 4-HOBA or 1 g/L of 2-HOBA. 4-HOBA (as hydrochloride salt) was synthesized as previously described^21. 2-HOBA (as the acetate salt, CAS 1206675-01-5) was manufactured by TSI Co., Ltd. (Missoula, MT) and obtained from Metabolic Technologies, Inc., Ames, IA^24. A commercial production lot was used (Lot 16120312), and the purity of the commercial lot was verified to be >99% via HPLC and NMR spectroscopy^24. After two weeks, the mice continued to receive these treatments but were switched to a western diet for 16 weeks to induce hypercholesterolemia and atherosclerosis. Similarly, 12 week-old male Ldlr^−/− mice were pretreated with vehicle alone (water) or containing 1 g/L of 2-HOBA for two weeks and were then switched to a western diet for 16 weeks to induce hypercholesterolemia and atherosclerosis, while continuing the treatment with 2-HOBA or water alone^58, 59, 60 Based on the average weight and daily consumption of water per mouse the estimated daily dosage with 1 g/L of 2-HOBA is 200 mg/Kg. […] Eight week old, male Ldlr^−/− mice were fed a western diet for 16 weeks and were continuously treated with water containing either 2-HOBA or 4-HOBA. Urine samples were collected using metabolic cages (2 mice in one cage) during 18 h after oral gavage with either 2-HOBA or 4-HOBA (5 mg each mouse).
# Measurement of 2-HOBA and 4-HOBA was performed by LC/MS after derivatization with phenylisothiocyanate (PITC), and using [^2H4]-2-HOBA as an internal standard as previously described for 2-HOBA^71 (See FIG. 23). For these assays, the Waters Xevo-TQ-Smicro triple quadrupole mass spectrometer operating in positive ion multiple reaction monitoring (MRM) mode monitored the following transitions: for PITC-2-HOBA or PITC-4-HOBA, m/z 259→107@20 eV (quantifier transition) and m/z 259→153 @20 eV (qualifier transition); for PITC-[^2H4]2-HOBA m/z 263 →107@20 eV (quantifier transition), m/z 263→111 @20 eV (qualifier transition). Abundance for PITC-2-HOBA was calculated based on the ratio of peak area versus that of PITC-[^2H4]2-HOBA. Because the transition reactions for PITC-4-HOBA are less efficient than for PITC-2-HOBA, the ratio of peak areas for PITC-4-HOBA/PITC-[^2l H4]2-HOBA was multiplied by the correction factors 3.9 and 5.7 when using the m/z 107 and m/z 153 transition, respectively (See FIG. 24).
SMILES,concentration at 16 weeks,levels in the aorta and heart,plasma levels of 2-HOBA versus 4-HOBA
"NCc1ccccc1O [2-HOBA, 2-hydroxybenzylamine]",469 ± 38 ng/mL,similar,not significantly different
"NCc1ccc(O)cc1 [4-HOBA, 4-hydroxybenzylamine, reference compound]",25 ± 3 ng/mL,similar,not significantly different
